Measured values: patent publication US20250340532A1, “HETEROCYCLIC COMPOUND CCR4 INHIBITOR AND USER THEREOF” (Xizang Haisco Pharmaceutical Co., Ltd., priority 2022, published 2025)

What was measured:
CCR4 = target: T1, CCR4 (Homo sapiens, UniProt P51679); assay: Calcium flow detected by FLIPR; assay type: cell-based; details: CCR4/HEK293 cells, agonist CCL17, Fluo-4 calcium signal
T1 construct: expressed in transfected cells; host or cells: HEK293
T1 sequence (P51679 1-360): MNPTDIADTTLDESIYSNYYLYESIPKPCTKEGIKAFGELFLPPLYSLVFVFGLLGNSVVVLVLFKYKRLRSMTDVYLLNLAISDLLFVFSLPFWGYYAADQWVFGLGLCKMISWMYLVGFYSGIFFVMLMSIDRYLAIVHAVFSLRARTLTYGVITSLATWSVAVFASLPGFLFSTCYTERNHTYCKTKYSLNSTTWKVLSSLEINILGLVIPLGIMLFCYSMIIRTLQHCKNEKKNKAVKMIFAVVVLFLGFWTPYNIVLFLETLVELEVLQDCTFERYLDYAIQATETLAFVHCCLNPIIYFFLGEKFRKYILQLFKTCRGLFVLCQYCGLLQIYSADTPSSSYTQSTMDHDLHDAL
Experimental: CCR4/HEK293 cells were added to a 384-well cell culture plate (Greiner #781946) at a rate of 20 μL/well (20,000 cells/well) and incubated overnight in a 37° C., 5% CO2 incubator (Incubator, Thermo). On the second day, the 384-well cell culture plate was taken out of the incubator and the culture medium was removed; Then, 20 μL of detection buffer and 20 μL of 2X Fluo-4 Direct™ (Invitrogen, Cat #F10471) were added. Then, compounds were added at 10 μL/well (compounds were subjected to 4-fold serial dilution, and the highest detection concentration was 10 μM), and the cells were incubated in a 37° C., 5% CO2 incubator for 50 min, and then incubated at room temperature for 10 min. The 384-well culture plate was placed in FLIPR ([…]), 10 μL of 6X agonist CCL17 was added by using an automatic loader, and the fluorescence signal was read immediately. The mean and standard error (Mean±SEM) were statistically analyzed using Graphpad Prism software, and the IC50 value was calculated.
The experimental results are shown in Table 3, where A represents IC50<100 nm; B represents 100 nM≤IC50<500 nM, and C represents 500 nM≤IC50.

[1] = Pharmacokinetic test in rats; assay type: in vivo, SD rats
Experimental: 1.1 Experimental animals: male SD rats, about 220 g, 6-8 weeks old, 6 rats/compound. Purchased from Chengdu Ddossy Experimental Animals Co., Ltd.
1.2 Experimental design: on the day of the experiment, 36 SD rats were randomly grouped according to their body weights. The animals were fasted with water available for 12 to 14 h one day before the administration and were fed 4 h after the administration.
(§1) Before and after the administration, 0.15 ml of blood was taken from the orbit of the animals under isoflurane anesthesia and placed in an EDTAK2 centrifuge tube. The blood was centrifuged at 5000 rpm and 4° C. for 10 min to collect plasma. The blood collection time points for the intravenous administration group and intragastric administration group were: 0, 5 min, 15 min, 30 min, 1 h, 2 h, 4 h, 6 h, 8 h and 24 h. Before analysis and detection, all samples were stored at −80° C., and a quantitative analysis of samples was performed using LC-MS/MS.

[2] = Pharmacokinetic test in mice; assay type: in vivo, C57 mice
Experimental: 1.1 Experimental animals: Male C57 mice, 20-25 g, 6 mice/compound. Purchased from Chengdu Ddossy Experimental Animals Co., Ltd.
1.2 Experimental design: On the day of the experiment, 24 C57 mice were randomly grouped according to their body weight. The animals were fasted with water available for 12 to 14 h one day before the administration and were fed 4 h after the administration.
as §1, with “0.06 mL” for “0.15 ml”, “intravenous” for “intravenous administration”, “0 min,” for “0,”, “7” for “6 h, 8”

[3] = Pharmacokinetic test in beagle dogs; assay type: in vivo; details: for AUC(0-t) / clearance / Vd: male, beagle, dog, plasma; for Vd: read-out: Vdss
Experimental: Experimental animals: male beagle dogs, about 8-11 kg, 6 beagle dogs/compound, purchased from Beijing Marshall Biotechnology Co., Ltd.
Experimental method: On the day of the experiment, 18 beagle dogs were randomly grouped according to their body weights. The animals were fasted with water available for 12 to 14 h one day before the administration and were fed 4 h after the administration.
Before and after the administration, 1 ml of blood was taken from the jugular veins or limb veins, and placed in an EDTAK2 centrifuge tube. Centrifugation was performed at 5000 rpm at 4° C. for 10 min, and plasma was collected. The blood collection time points for the intravenous group and intragastric administration group were: 0 min, 5 min, 15 min, 30 min, 1 h, 2 h, 4 h, 6 h, 8 h, 10 h, 12 h, 24 h, 48 h, and 72 h. Before analysis and detection, all samples were stored at −80° C. The samples were analyzed quantitatively by LC-MS/MS.

[4] = male, SD, rat, iv, plasma, i.v. 2.5 mg/kg
[5] = male, C57, mouse, iv, plasma, i.v. 2.5 mg/kg

SMILES | IC50 (CCR4) | F ([1]; i.g. 10 mg/kg) | AUC [1, 4] | clearance [1, 4] | Vd ([1]; male, SD, rat, iv, plasma, i.v. 2.5 mg/kg, read-out: Vdss) | AUC ([1]; male, SD, rat, po, plasma, i.g. 10 mg/kg) | F ([2]; i.g. 10 mg/kg) | AUC(0-t) [2, 5] | clearance [2, 5] | Vd ([2]; male, C57, mouse, iv, plasma, i.v. 2.5 mg/kg, read-out: Vdss) | AUC(0-t) ([2]; male, C57, mouse, po, plasma, i.g. 10 mg/kg) | F ([3]; i.g. 3 mg/kg) | AUC(0-t) ([3]; iv, i.v. 1 mg/kg) | clearance ([3]; iv, i.v. 1 mg/kg) | Vd ([3]; iv, i.v. 1 mg/kg) | AUC(0-t) ([3]; po, i.g. 3 mg/kg)
Cc1nc(N2CCC(C3CN(C4CC(C)(C(=O)O)C4)CCO3)CC2)nc(NC(C)c2ccc(Cl)cc2Cl)c1Cl (single isomer, unassigned) [Compound 73 isomer 3] | < 100 nM | 80.3 ± 34% | 4630 ± 1030 ng·h/mL | 9.19 ± 2.1 mL/min/kg | 1.55 ± 0.091 L/kg | 14900 ± 6380 ng·h/mL | 90.4 ± 14% | 7400 ± 385 ng·h/mL | 5.62 ± 0.29 mL/min/kg | 1.04 ± 0.055 L/kg | 26800 ± 4110 ng·h/mL | >98% | 12100 ± 3170 ng·h/mL | 1.38 ± 0.4 mL/min/kg | 1.2 ± 0.16 L/kg | 37700 ± 10100 ng·h/mL
CC(Nc1cc(N2CCC(C3CN(C4CC(C)(C(=O)O)C4)CCO3)CC2)ccc1Cl)c1ccc(Cl)cc1Cl (single isomer, unassigned) [Compound 82 isomer 3] | < 100 nM | – | – | – | – | – | – | – | – | – | – | >98% | 21100 ± 3840 ng·h/mL | 0.672 ± 0.14 mL/min/kg | 1.04 ± 0.2 L/kg | 68400 ± 7190 ng·h/mL
